From patent US10925967B2, “Degradation of Bruton's tyrosine kinase (BTK) by conjugation of BTK inhibitors with E3 ligase ligand and methods of use” (Dana-Farber Cancer Institute, Inc., priority 2016, dated 2021)

Experiments:
BTK [1] = target: T1, BTK (Homo sapiens, UniProt Q06187); experiment: MOLM14 cell assay and Western blotting of BTK, Aurora A and tubulin levels; format: cell-based; parameters: endogenous in cells; settings: MOLM14 cells, 40 nM, 200 nM, 1 μM, 4 hours
Method: MOLM14 cells were treated with DMSO or with 40 nM, 200 nM, 1 μM of a BTK bifunctional inhibitor compound of the disclosure for 4 hours, followed by protein lysate harvest and Western blotting analysis of BTK, Aurora A, and ca-tubulin levels. […] (FIG. 2)
(§1) Cells are lysed using RIPA buffer supplemented with protease inhibitor cocktail (Roche) and phosSTOP phosphatase inhibitor cocktail (Roche) on ice for 15 minutes. The lysates are spun at 20,000×g for 15 minutes on 4° C. and protein concentration is determined using BCA assay (Pierce). The following primary antibodies are used in this study: BTK, GADPH, tubulin and Aurora A kinase (all from Cell Signaling Technology). Blots are imaged using fluorescence-labeled secondary antibodies (LI-COR) on the OdysseyCLxImager (LI-COR). Quantification of band intensities is performed using OdysseyCLx software (LI-COR).

BTK [2] = target: T1, BTK; experiment: K562 cell assay and Western blotting of BTK levels; format: cell-based; parameters: endogenous in cells; host or cells: K562 cells; settings: K562 cells, 200 nM, 1 μM, or 5 μM, 12 hours
Method: K562 cells were treated with DMSO or with 200 nM, 1 μM, or 5 μM of a BTK bifunctional inhibitor compound of the disclosure for 12 hours, followed by protein lysate harvest and Western blotting analysis.
as §1

T1 sequence (Q06187 whole entry): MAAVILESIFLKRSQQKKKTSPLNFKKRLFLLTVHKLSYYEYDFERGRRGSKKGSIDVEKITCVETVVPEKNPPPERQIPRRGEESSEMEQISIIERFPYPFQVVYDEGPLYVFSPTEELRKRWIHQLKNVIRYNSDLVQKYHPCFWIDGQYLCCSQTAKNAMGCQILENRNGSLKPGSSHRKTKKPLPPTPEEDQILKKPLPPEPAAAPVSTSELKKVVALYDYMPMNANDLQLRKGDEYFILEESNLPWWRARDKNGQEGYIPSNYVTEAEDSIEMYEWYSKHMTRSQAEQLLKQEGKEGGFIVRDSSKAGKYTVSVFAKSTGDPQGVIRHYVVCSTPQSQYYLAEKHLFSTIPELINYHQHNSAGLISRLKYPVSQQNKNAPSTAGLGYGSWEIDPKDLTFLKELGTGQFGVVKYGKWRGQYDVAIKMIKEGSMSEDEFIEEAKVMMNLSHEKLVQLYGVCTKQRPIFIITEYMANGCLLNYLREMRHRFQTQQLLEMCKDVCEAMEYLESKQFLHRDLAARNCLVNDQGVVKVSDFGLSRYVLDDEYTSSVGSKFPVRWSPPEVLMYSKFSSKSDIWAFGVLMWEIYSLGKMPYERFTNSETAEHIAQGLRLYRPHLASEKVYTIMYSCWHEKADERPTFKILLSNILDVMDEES

| BTK degradation (Western blot) (BTK [1]) | BTK degradation (Western blot) (BTK [2]) | Structure (SMILES) |
| --- | --- | --- |
| showed BTK degradation | – | COc1cc(Nc2c(C#N)cnc3cc(OCCCN4CCN(CCOCCOCCNc5cccc6c5C(=O)N(C5CCC(=O)NC5=O)C6=O)CC4)c(OC)cc23)c(Cl)cc1Cl (stereo not drawn) [Compound I-3] |
| – | showed BTK degradation | COc1cc(Nc2c(C#N)cnc3cc(OCCCN4CCN(CCOCCOCCOCCNc5cccc6c5C(=O)N(C5CCC(=O)NC5=O)C6=O)CC4)c(OC)cc23)c(Cl)cc1Cl (stereo not drawn) [Compound I-2] |
| – | showed BTK degradation | COc1cc(Nc2c(C#N)cnc3cc(OCCCN4CCN(C(=O)CCCNC(=O)COc5cccc6c5C(=O)N(C5CCC(=O)NC5=O)C6=O)CC4)c(OC)cc23)c(Cl)cc1Cl (stereo not drawn) [Compound I-5] |
